Assay results taken from patent publication EP0073845B1, “Imidazopyridine-spiro-piperidine compounds” (Yoshitomi Pharmaceutical Industries, Ltd., priority 1981, dated 1983).

What was measured:
[1] = tested on: apomorphine-induced vomiting; test: Effect on apomorphine-induced vomiting; assay type: in vivo; conditions: Canis lupus familiaris, po, 2 hours prior to apomorphine hydrochloride (0.1 mg/kg, s.c.); incidence of vomiting checked for 2 hours; beagle dogs
Experimental: (1) Effect on apomorphine-induced vomiting
The test was performed according to the method described by M. Nakanishi et al: in "Arzneimittel-Forschung", vol. 21, 391 ff (1971).
Groups of 5-10 beagle dogs of both sexes each were used. The test compound was administered orally 2 hours prior to the treatment with apomorphine hydrochloride (0.1 mg/kg, s.c.). The incidence of vomiting was checked for 2 hours, and the ED50 (50% effective dose) was determined.

Cataleptogenic activity = conditions: rat, in vivo, ip; Wistar female rats; from total points of the maximum appearance of catatonia
Experimental: (2) Cataleptogenic Activity
The test was performed according to the method described by W. Wirth et al. in "Archives Internationales de Pharmacodynamie et de Therapie", vol, 115, 1 ff (1958).
Groups of 5 Wistar female rats each were used. […] The ED50 was determined from total points of the maximum appearance of catatonia.

Row | SMILES | ED50 [1] [mg/kg] | ED50 (Cataleptogenic activity) [mg/kg]
1 | Cl.Cl.O.O=C1NC2CCCCN2C12CCN(CCCN1c3ccccc3CCc3ccccc31)CC2 (centres unmarked) [A, 1'-[3-(10,11-dihydro-5H-dibenz[b,f]azepin-5-yl)propyl]-1,2,3,5,6,7,8,8a-octahydro-2-oxo-imidazo[1,2-a]pyridine-3-spiro-4'-piperidine dihydrochloride monohydrate] | 2.5 | > 50
2 | Cl.Cl.O.O=C1NC2CCCCN2C12CCN(CCCN1c3ccccc3CCc3ccc(Cl)cc31)CC2 (centres unmarked) [B, 1'-[3-(3-chloro-10,11-dihydro-5H-dibenz[b,f]azepin-5-yl)propyl]-1,2,3,5,6,7,8,8a-octahydro-2-oxo-imidazo[1,2-a]pyridine-3-spiro-4'-piperidine dihydrochloride monohydrate] | 0.5 | > 50
3 | CN(C)CCCN1c2ccccc2Sc2ccc(Cl)cc21 [Chlorpromazine, reference compound] | 5.1 | 12
4 | Cl.Cl.O.O=C1N=C2CCCCN2C12CCN(CCCN1c3ccccc3CCc3ccccc31)CC2 [C, 1'-[3-(10,11-dihydro-5H-dibenz[b,f]azepin-5-yl)propyl]-2,3,5,6,7,8-hexahydro-2-oxo-imidazo[1,2-a]pyridine-3-spiro-4'-piperidine dihydrochloride monohydrate] | 2 | > 50
